Measurements: US20240294541A1, “COMPOUNDS CONSTITUTING C20-MODIFIED SALINOMYCIN DERIVATIVES, A METHOD FOR OBTAINING THE SAME, A COMPOSITION CONTAINING THE SAME AND A USE OF SAID COMPOUNDS” (FILECLO SPOLKA Z OGRANICZONA ODPOWIEDZIALNOSCIA, priority 2021, published 2024)

Experiments:
Assay type in all cases: cell-based
[1] = test system: A2780Cis (cisplatin-resistant human ovarian cancer); assay: In vitro cytotoxicity, SRB assay, A2780Cis; details: for IC50: Homo sapiens, A2780cis, read-out: IC50 (nM) A2780Cis
[2] = test system: MIA PaCa-2 (human pancreatic cancer); assay: cells; details: Table 4; for IC50: MIA PaCa-2 human pancreatic cancer cells, read-out: IC50 (nM) MIA PaCa-2; for SI MIA PaCa-2: selectivity coefficient vs normal BALB/3T3 fibroblasts
Hs294T (human melanoma) = assay: cells; details: Table 4; for IC50: Hs 294T, Hs294T human melanoma cells, read-out: IC50 (nM) Hs294T; for SI Hs294T: selectivity coefficient vs normal BALB/3T3 fibroblasts
[3] = test system: NCI-H358 (human lung cancer); assay: cells; details: Table 4; for IC50: NCI-H358 human lung cancer cells, read-out: IC50 (nM) NCI-H358; for SI NCI-H358: selectivity coefficient vs normal BALB/3T3 fibroblasts
[4] = test system: BALB/3T3 (normal mouse fibroblasts); assay: In vitro cytotoxicity, SRB assay, normal BALB/3T3 fibroblasts; details: Table 4; BALB/3T3 normal mouse fibroblasts; read-out: IC50 (nM) BALB3T3 normal cells
[5] = test system: SNU-16 (human gastric cancer); assay: cells; details: Table 4; for IC50: SNU-16 human gastric cancer cells, read-out: IC50 (nM) SNU-16; for SI SNU-16: selectivity coefficient vs normal BALB/3T3 fibroblasts
[6] = test system: PLC/PRF/5 (human liver cancer); assay: cells; details: Table 4; for IC50: PLC/PRF/5 human liver cancer cells, read-out: IC50 (nM) PLC/PRF/5; for SI PLC/PRF/5: selectivity coefficient vs normal BALB/3T3 fibroblasts
[7] = test system: MV-4-11 (human biphenotypic leukaemia); assay: In vitro cytotoxicity, MTT assay, MV-4-11; details: for IC50: Homo sapiens, MV4-11, read-out: IC50 (nM) MV4-11

Row | Structure (SMILES) | SI A2780Cis [1] | IC50 [1] | IC50 [2] | SI MIA PaCa-2 [2] | IC50 (Hs294T (human melanoma)) | SI Hs294T (Hs294T (human melanoma)) | IC50 [3] | SI NCI-H358 [3] | IC50 [4] | IC50 [5] | SI SNU-16 [5] | IC50 [6] | SI PLC/PRF/5 [6] | SI MV4-11 [7] | IC50 [7]
1 | CC[C@@H](C(=O)[C@@H](C)[C@@H](O)[C@H](C)[C@@H]1O[C@@H]([C@@H](CC)C(=O)O)CC[C@@H]1C)[C@H]1O[C@]2(C=C[C@@H](NC(=O)Nc3cccc(C(F)(F)F)c3)[C@]3(CC[C@@](C)([C@H]4CC[C@](O)(CC)[C@H](C)O4)O3)O2)[C@H](C)C[C@@H]1C [FLC-00385-1] | ≈219.0 | < 0.1 nM | 5.93 nM | 3.7 | 162 nM | 0.1 | 36.2 nM | 0.60 | 21.9 nM | 20.9 nM | 1.0 | 0.55 nM | 39.7 | 125.5 | 0.17 nM
2 | CC[C@@H](C(=O)[C@@H](C)[C@@H](O)[C@H](C)[C@@H]1O[C@@H]([C@@H](CC)C(=O)O)CC[C@@H]1C)[C@H]1O[C@]2(C=C[C@@H](NC(=O)C(=O)NCCCc3ccccc3)[C@]3(CC[C@@](C)([C@H]4CC[C@](O)(CC)[C@H](C)O4)O3)O2)[C@H](C)C[C@@H]1C [FLC-00458-1•Na] | 29.6 | 24.5 nM | 61.9 nM | 11.7 | 1590 nM | 0.5 | 368 nM | 1.97 | 727 nM | 323 nM | 2.2 | 84.4 nM | 8.6 | 31.3 | 23.2 nM
3 | C=CCOC(=O)N[C@@H]1C=C[C@]2(O[C@H]([C@@H](CC)C(=O)[C@@H](C)[C@@H](O)[C@H](C)[C@@H]3O[C@@H]([C@@H](CC)C(=O)O)CC[C@@H]3C)[C@@H](C)C[C@H]2C)O[C@@]12CC[C@@](C)([C@H]1CC[C@](O)(CC)[C@H](C)O1)O2 [FLC-00425-1•Na] | – | – | 269 nM | – | 362 nM | – | 234 nM | – | – | 420 nM | – | 26.5 nM | – | – | –
4 | CC[C@@H](C(=O)[C@@H](C)[C@@H](O)[C@H](C)[C@@H]1O[C@@H]([C@@H](CC)C(=O)O)CC[C@@H]1C)[C@H]1O[C@]2(C=C[C@@H](NC(=O)OCCOCc3ccccc3)[C@]3(CC[C@@](C)([C@H]4CC[C@](O)(CC)[C@H](C)O4)O3)O2)[C@H](C)C[C@@H]1C [FLC-00451-1•Na] | 96.0 | 2.13 nM | 14.7 nM | 13.9 | 542 nM | 0.4 | 307 nM | 0.67 | 204 nM | 126 nM | 1.6 | 42 nM | 4.9 | 127.9 | 1.6 nM
5 | CC[C@@H](C(=O)[C@@H](C)[C@@H](O)[C@H](C)[C@@H]1O[C@@H]([C@@H](CC)C(=O)O)CC[C@@H]1C)[C@H]1O[C@]2(C=C[C@@H](NC(=O)C(=O)NC)[C@]3(CC[C@@](C)([C@H]4CC[C@](O)(CC)[C@H](C)O4)O3)O2)[C@H](C)C[C@@H]1C [FLC-00443-1•Na] | 23.3 | 176 nM | 554 nM | 7.4 | 3970 nM | 1.0 | 2620 nM | 1.57 | 4110 nM | 6190 nM | 0.7 | 477 nM | 8.6 | 23.4 | 175 nM
6 | CC[C@@H](C(=O)[C@@H](C)[C@@H](O)[C@H](C)[C@@H]1O[C@@H]([C@@H](CC)C(=O)O)CC[C@@H]1C)[C@H]1O[C@]2(C=C[C@@H](NC(=O)OCCOC)[C@]3(CC[C@@](C)([C@H]4CC[C@](O)(CC)[C@H](C)O4)O3)O2)[C@H](C)C[C@@H]1C [FLC-00459-1•Na] | 30.7 | 34.7 nM | 78.3 nM | 13.6 | 786 nM | 1.4 | 531 nM | 2.01 | 1070 nM | 535 nM | 2.0 | 92.2 nM | 11.6 | 31.8 | 33.6 nM
7 | CC[C@@H](C(=O)[C@@H](C)[C@@H](O)[C@H](C)[C@@H]1O[C@@H]([C@@H](CC)C(=O)O)CC[C@@H]1C)[C@H]1O[C@]2(C=C[C@@H](NC(=S)NC(C)C)[C@]3(CC[C@@](C)([C@H]4CC[C@](O)(CC)[C@H](C)O4)O3)O2)[C@H](C)C[C@@H]1C [FLC-00387-1] | – | – | 9.71 nM | – | 162 nM | – | 44.4 nM | – | – | 10.2 nM | – | 0.7 nM | – | – | –
